Consider eleven compounds from patent US20250108036A1, “COMPOSITIONS FOR REMOVING SENESCENT CELLS AND USES THEREOF” (LIFECEUTIX CO., LTD., priority 2021, published 2025).

The test system of data set [1] is foreskin cells in which senescence was induced by doxorubicin. As to the kind of experiment: CellTiter-Glo cell viability of doxorubicin-induced senescent foreskin cells (Examples 1-2, 10, 11, 13; Tables 4, 63, 65). It is filed as cell-based, human. The conditions noted are these: for viability at 1.1 µM: 1.1 μM test compound; for cell death, senescent cells: 30 μM, 3 days; for viability at 10 µM: 10 μM test compound; for viability at […]: […] test compound.
Experimental: (§2) After 3 days, cell viability was measured using CellTiter-Glo Luminescent Cell Viability Assay (Promega) or light microscopy.

The test system of data set [2] is HMGN1. The experiment in a line: HMGN1 ELISA in culture medium of A549 cancer cells (Example 12, Table 66). The conditions noted are these: Homo sapiens, A549, doxorubicin-induced senescent A549 cells, test compound 30 μM, ELISA, DMSO = 100; read-out: HMGN1 (amount of HMGN1 secreted in the cell culture). The data set is classed as cell-based, human. (An ELISA detects its analyte on a solid surface through an enzyme-linked reagent.)

For data set [3] the following is noted: read-out: MST Kd; cited from earlier work.
For data set [4], the system named is HMGN1. The experiment in a line: HMGN1 ELISA in culture medium of foreskin cells (Examples 10, 11; Tables 62, 63, 64). The data set is classed as cell-based, human. Particulars: Homo sapiens, 30 μM test compound, doxorubicin-treated foreskin cells, DMSO = 100; read-out: HMGN1.
The test system of a further data set is A549. The experiment in a line: CellTiter-Glo cell viability of senescent A549 cancer cells (Example 12, Table 67). Particulars: Homo sapiens, A549, doxorubicin-induced senescent A549 cancer cells, CellTiter-Glo, read-out: Survival (%); for viability at 1.1 µM: 1.1 μM test compound. It is filed as cell-based, human. A general note: In ATP-based viability assays light output follows the ATP content of the culture.

The subject of data set [5] is foreskin cells in which senescence was not induced. As to the kind of experiment: CellTiter-Glo growth of foreskin cells in which senescence was not induced (Tables 5, 12). Particulars: 30 μM, 3 days.
Experimental: as §2
For the next data set, the system named is senescent foreskin cells. The experiment in a line: survival of senescent foreskin cells treated with medium supernatant (secreted fluid) of compound-killed cells (Example 13, Tables 68, 69). It is filed as cell-based, human. The conditions noted are these: supernatant-treated cells: senescent cells, after 3 days.
The test system of data set [6] is normally proliferating foreskin cells. As to the kind of experiment: survival of normally proliferating foreskin cells treated with medium supernatant (secreted fluid) of compound-killed cells (Example 13, Table 68). It is filed as cell-based, human. Particulars: after 3 days. As for the experimental part:
After treating cells with the test compound at a high concentration that induces the death of most cells in both non-senescence-induced and senescence-induced cells, the cells were washed three times with PBS to remove the test compound, and replaced with fresh medium and cultured for an additional 3 hours at the time when the compound has entered into the cell but has not yet induced cell death (approximately 1 to 3 hours after compound treatment). During this additional culture, by checking with an optical microscope, etc., the medium supernatants containing secreted fluid from normally proliferating and senescent cells in which cell death was induced were obtained. The obtained medium supernatant was replaced with the medium of normally proliferating and senescent cells, respectively, and cell survival rate was measured after 3 days.

A short description of data set [7]: open field test in obese mice given senescent cells killed by test compounds (Example 16, Table 72). Particulars: obese mice administered senescent cells whose death was induced by the test compound. The data set is classed as in vivo, C57BL6J mice. The source says:
(§1) To obtain preadipocytes, groin fat tissue was collected from an 8-week-old female C57BL6J mouse (purchased from KRIBB Laboratory Animal Resource Center). The fat tissue was cut into small pieces and treated with collagenase to decompose the fat tissue, then centrifuged to collect the stromal vascular fraction (SVF) containing preadipocytes. It was washed with a washing medium (HBSS, purchased from GenDEPOT; 3.5% Albumin Fraction V, purchased from GenDEPOT; 100 U/ml Penicillin & Streptomycin, purchased from Invitrogen), mixed again, and extracted by filtering through a 100 μm nylon mesh. The isolated preadipocytes were cultured in the designated medium (DMEM, purchased from GenDEPOT; 20% FBS, purchased from GenDEPOT; 100 U/ml Penicillin & Streptomycin, purchased from Invitrogen). In the same manner as Example 1, cells were treated with doxorubicin at a concentration of 250 nM for 24 hours and cultured for an additional 21 days to induce cell senescence. Cells were treated with doxorubicin at a concentration of 250 nM for 24 hours and cultured for an additional 21 days to induce cell senescence. By treating the test compounds in the same manner as in Example 13, it was confirmed using an optical microscope that the death of most senescent cells was induced. The killed preadipocytes were washed using PBS (purchased from Welgene) and then mixed with PBS at a concentration of 5×10^5 cells/200 μl. It was administered subcutaneously to 8-week-old female C57BL6J mice (purchased from KRIBB Laboratory Animal Resource Center). At 7 and 10 days after administration of the killed senescent cells, 2 million senescent preadipocytes were mixed in 200 μl of PBS and administered into the abdominal cavity of mice. After administration of killed senescent cells, obesity was induced in mice with a high-fat diet (DIO) for 8 weeks in the same manner as in Example 9-1. Afterwards, the mouse was sacrificed in the same manner as in Example 7-2, total RNA was extracted from the groin fat tissue, and qRT-PCR was performed and analyzed using the synthesized cDNA. […] The mRNA amount of p16, MMP3, and IL6 without administration of senescent cells whose death was induced by the test compounds was calculated as 100%, and the amount of p16, MMP3, and IL6 after administration of the senescent cells whose death was induced by the test compounds was compared with them. Furthermore, an open field test was performed to analyze aging-related frailty in mice using the same method as Example 7-7. […] The amount of activity evaluation without administration of senescent cells whose death was induced by the test compounds was calculated as 100% and compared it with the amount of activity evaluation after administration of senescent cells whose death was induced by the test compounds.

The next data set deals with p16, MMP3, IL6. The experiment in a line: p16, MMP3, IL6 mRNA qRT-PCR in groin fat of obese mice given senescent cells killed by test compounds (Example 16, Table 72). It is filed as in vivo, C57BL6J mice. Particulars: obese mice administered senescent cells whose death was induced by the test compound.
From the text: as §1, with “compounds. […]” for “compounds.”

Data set [8] deals with foreskin cells in which aging was induced by doxorubicin. The experiment in a line: cell viability of senescent foreskin cells with caspase inhibitor QVD-Oph (Example 10, Table 61). The data set is classed as cell-based, human. The conditions noted are these: QVD-Oph 20 μM alone; doxorubicin-senescent foreskin cells.
Setting [9] is: Homo sapiens, 72 h, doxorubicin-induced senescent foreskin cells, CellTiter-Glo, 0 μM = 100, read-out: Survival (%).
The mark [10] stands for this setting: supernatant from compound-treated medium without cells (No Cells).
The mark [11] stands for this setting: supernatant from death-induced proliferating foreskin cells (compound 30 μM).
The mark [12] stands for this setting: supernatant from death-induced senescent foreskin cells (compound 30 μM).

SMILES strings stand for the structures.

One may read the Kd as the equilibrium constant for the complex coming apart. `CC(C)(C)OC(=O)CCCN1C(=O)c2ccccc2C1=O` [LX-407]: the results for the viability at 1.1 µM (in data set [1] (setting [9]); in the data set with A549) were 15.9% and 29.4%, respectively. Besides, the figures for the activity at 30 µM in the data set with HMGN1 [2] and with HMGN1 [4] were 339% and 299%, respectively. Further, in [3], the Kd is 399 nM.

Take `CC(C)(C)OC(=O)C(N1C(=O)c2ccccc2C1=O)C(C)(C)C` (stereo not drawn) [QW-034]: the Kd in data set [3] was 979 nM.

On to `Cc1onc(C(=O)N2CCN(C(c3ccc(Cl)cc3)c3ccc(Cl)cc3)CC2)c1N(O)O` [LX-401], for which the “cell death, normally proliferating cells” value in data set [5] is reported as “induced the death of most cells”. The “cell death, senescent cells” value in data set [1] is reported as “induced the death of most cells”. For the same compound, the viability at 1.1 µM is 20.4% in [1] (setting [9]) and 89.7% with A549. The viability at 10 µM in data set [1] (setting [9]) was determined as 10.6%; in the data set with A549 (10 μM test compound) it was 42.1%. The viability at 30 µM in data set [1] (Homo sapiens, 72 h, 30 μM test compound, doxorubicin-induced senescent foreskin cells, CellTiter-Glo, 0 μM = 100, read-out: Survival (%)) worked out at 7.8%; in the data set with A549 (30 μM test compound), 16.8%. For the same compound, the viability at […] in [1] (setting [9]) amounted to 12.4%. For the same compound, the activity at 30 µM with HMGN1 [2] came out at 277%; in the data set on HMGN1 [4] it was 263%. Further, the “Survival (%)” value in the data set on senescent foreskin cells (setting [10]) is 101.1 (±5.5) %; in the data set on senescent foreskin cells (setting [11]) it was 48.2 (±4.2) %; in the data set on senescent foreskin cells (setting [12]) it was 42.2 (±4)^ %; in [6] (setting [10]) it was 97.9 (±7.2) %; in [6] (setting [11]), 88.1 (±4.2) %; in data set [6] (setting [12]), 95.1 (±5.7) %.

In the case of `CC(C)(C)OC(=O)CCN1C(=O)c2ccccc2C1=O` [QW-011], the Kd in data set [3] was 926 nM.

In the case of `CC(C(=O)OC(C)(C)C)N1C(=O)c2ccccc2C1=O` (stereo not drawn) [QW-023], the dissociation constant Kd in [3] is 1780 nM.

As to `CCC(C)C(C(=O)OC(C)(C)C)N1C(=O)c2ccccc2C1=O` (stereo not drawn) [QW-050], in [3], the Kd was 2430 nM.

As to `COc1ccc(N(C(=O)CCl)C(C(=O)NCCc2ccccc2)c2cccs2)cc1Cl` (stereo not drawn) [LX-402], in data set [5], the “cell death, normally proliferating cells” value was “induced the death of most cells”. For the same compound, the “cell death, senescent cells” value in data set [1] is “induced the death of most cells”. Besides, the viability at 1.1 µM in [1] (setting [9]) worked out at 67.2%; in the data set with A549, 71.6%. Further, the viability at 10 µM in data set [1] (setting [9]) stood at 4.5%. The viability at […] in data set [1] (setting [9]) turned out to be 27%. In addition, the activity at 30 µM in the data set with HMGN1 [2] was found to be 340%; in the data set with HMGN1 [4], 298%. Further, the “Survival (%)” value is reported as 98 (±3.6) % with senescent foreskin cells (setting [10]); 31 (±1.2) % in the data set on senescent foreskin cells (setting [11]); 48.3 (±2.1) % with senescent foreskin cells (setting [12]); 97.1 (±5.9) % in [6] (setting [10]); 78.1 (±3.8) % in data set [6] (setting [11]); 101.1 (±2.2) % in [6] (setting [12]).

As to `CC(C)(C)OC(=O)CCCCCN1C(=O)c2ccccc2C1=O` [QW-029], the dissociation constant (Kd) in data set [3] was 2100 nM.

`CCOc1ccccc1-n1c(CN2CCNCC2)nc2ccccc2c1=O` [LX-1002]: in data set [7], the “Open Field Test Time in Center (%)” value is listed as 141.1 (±18.3) %. Moreover, the viability at 1.1 µM in data set [1] (setting [9]) is 4.2%. Besides, the activity at 30 µM in the data set with HMGN1 [2] turned out to be 296%. In addition, in the data set with p16, MMP3, IL6, the “IL6 mRNA (%)” value is reported as 74.4 (±8.5) %, the “MMP3 mRNA (%)” value was 68.1 (±13.8) % and the “p16 mRNA (%)” value is reported as 77.4 (±8.6) %. Also, the activity at 30 µM with HMGN1 [4] came to 286%. Further, in the data set on A549, the viability at 1.1 µM worked out at 47.6%.

As for `CC(C)[C@H](NC(=O)c1ccc2ccccc2n1)C(=O)N[C@@H](CC(=O)O)C(=O)COc1c(F)cccc1F` [QVD], the “Survial (%)” value in [8] is recorded as 105.1 (±4.7) %.

On to `CC(C)(C)OC(=O)C(C)(C)N1C(=O)c2ccccc2C1=O` [QW-020], for which the Kd in data set [3] is 2140 nM.
